This note sets out measurements from patent publication US9352015B2, “Antimicrobial peptides” (priority 2009, dated 2016).

For orientation: HC50 means the concentration giving 50% haemolysis.

≈ marks a conversion by molar mass, not a printed value. Read-outs that look alike come from different tables or passages of the source. Where a SMILES comes first, the peptide text is derived from it.

For one data set, the system named is Gram-negative bacteria. The data set can be described thus: MIC against Gram-negative bacteria (V681 analog studies). The data set is classed as cell-based. On the procedure:
Minimal inhibitory concentrations (MICs) are determined using a standard microtiter dilution method, with 3 sets of determinations, in LB (Luria-Bertani) no-salt medium (10 g of tryptone and 5 g of yeast extract per liter). In some cases, Mueller Hinton (MH) medium or Brain Heart Infusion (BHI) medium is used.
Briefly, cells were grown overnight at 37° C. in LB and diluted in the same medium. Serial dilutions of the peptides are added to the microtiter plates in a volume of 100 μl followed by 10 μl of bacteria to give a final inoculum of 5×10^5 colony-forming units/ml. Plates are incubated at 37° C. for 24 hours and MICs determined as the lowest peptide concentration that inhibited growth. Alternatively, minimal inhibitory concentrations are determined using a standard microtiter dilution method in a Mueller-Hinton (MH) medium. Briefly, cells are grown overnight at 37° C. in MH broth and diluted in the same medium. In some cases, serial dilutions of the peptides are added to the microtiter plates in a volume of 100 μl followed by 10 μl of bacteria to give a final inoculum of 1×10^5 colony-forming units/ml. Plates are incubated at 37° C. for 24 hours and MICs are determined as the lowest peptide concentration that inhibited growth.

The subject of a further data set is human erythrocytes. The data set can be described thus: Hemolytic activity against human erythrocytes (HC50 / MHC, microtiter dilution). The data set is classed as cell-based. As for the experimental part:
(§1) Hemoglobin release was determined spectrophotometrically at 570 nm. The hemolytic activity was determined as the peptide concentration that caused 50% hemolysis of erythrocytes after 18 h (HC50). […] HC50 was determined by a plot of peptide concentration versus percent lysis.

Assay in data set [1]: as above
The data set is classed as cell-based. To be noted: 1% human erythrocytes, pH 7.4. On the procedure: as §1

The next data set relates to Acinetobacter baumannii. The class given is cell-based. To be noted: for Acinetobacter baumannii MICGM: geometric mean, 11 different isolates, 24 hours at 37° C. The essentials:
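Microtiter broth dilution in triplicate, mainly LB no-salt medium (MH or BHI in some cases), peptides serially diluted, final inoculum 5×10^5 CFU/ml (1×10^5 CFU/ml in MH variant); 24 h at 37° C. MIC is the lowest peptide concentration inhibiting growth, given in micromolar against clinical isolates.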

The subject of data set [2] is Methicillin Resistant Staphylococcus aureus (MRSA) and Staphylococcus aureus. The data set is classed as cell-based. The essentials:
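MICs by microtiter broth dilution in triplicate determinations, mostly LB no-salt medium (sometimes MH or BHI), final inoculum 5×10^5 CFU/ml (1×10^5 CFU/ml in the MH variant), 24 h at 37 °C. MIC is the lowest peptide concentration inhibiting growth; tested on 20 clinical MRSA and S. aureus isolates.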

A further data set concerns Pseudomonas aeruginosa. To be noted: geometric mean, 6 different isolates, 24 hours at 37° C.
A short description of data set [3]: Circular dichroism spectroscopy (helical structure). The data set is classed as physicochemical. A general note: Circular dichroism is the unequal absorption of left and right circularly polarised light.

Regarding `CC[C@H](C)[C@H](NC(=O)[C@H](C)NC(=O)[C@H](CCCCN)NC(=O)[C@H](CC(C)C)NC(=O)[C@H](C)NC(=O)[C@@H](NC(=O)[C@H](Cc1c[nH]cn1)NC(=O)[C@H](CC(C)C)NC(=O)[C@@H](NC(=O)[C@@H](NC(=O)[C@H](CCCCN)NC(=O)[C@H](CC(C)C)NC(=O)[C@H](C)NC(=O)[C@H](CO)NC(=O)[C@H](CCCCN)NC(=O)[C@H](Cc1ccccc1)NC(=O)[C@@H](NC(=O)[C@H](CCCCN)NC(=O)[C@H](CC(C)C)NC(=O)[C@H](Cc1ccccc1)NC(=O)[C@H](CO)NC(=O)[C@H](CCCCN)NC(=O)[C@H](Cc1c[nH]c2ccccc12)NC(=O)[C@H](CCCCN)NC(C)=O)[C@@H](C)O)[C@@H](C)O)C(C)C)[C@@H](C)O)C(=O)N[C@@H](CO)C(=O)N[C@@H](CO)C(N)=O` [NLL] (Ac-KWKSFLKTFKSALKTVLHTALKAISS-NH2), in the data set with Gram-negative bacteria, the “MIC against Gram-negative bacteria” value was 12.7 µg/mL (≈ 4.27 µM).

Consider `CC[C@@H](C)[C@@H](NC(=O)[C@@H](C)NC(=O)[C@@H](CCCCN)NC(=O)[C@@H](CC(C)C)NC(=O)[C@@H](C)NC(=O)[C@H](NC(=O)[C@@H](CCCCN)NC(=O)[C@@H](CC(C)C)NC(=O)[C@H](NC(=O)[C@@H](CCCCN)NC(=O)[C@@H](CCCCN)NC(=O)[C@@H](CCCCN)NC(=O)[C@@H](C)NC(=O)[C@@H](CCCCN)NC(=O)[C@@H](CO)NC(=O)[C@@H](Cc1ccccc1)NC(=O)[C@H](NC(=O)[C@@H](CCCCN)NC(=O)[C@@H](CC(C)C)NC(=O)[C@@H](Cc1ccccc1)NC(=O)[C@@H](CO)NC(=O)[C@@H](CCCCN)NC(=O)[C@@H](Cc1c[nH]c2ccccc12)NC(=O)[C@@H](CCCCN)NC(C)=O)[C@H](C)O)C(C)C)[C@H](C)O)C(=O)N[C@H](CO)C(=O)N[C@H](CCCCN)C(N)=O` [Peptide D11, Ac-KWKSFLKTFSKAKKKVLKTALKAISK-amide], for which the “Hemolytic activity HC50” value with human erythrocytes is 254.1 µM. In data set [1] (human), this molecule gave an HC50 at 18 h of 254 µM. In addition, in the data set with Acinetobacter baumannii, the “Antimicrobial Activity MIC against A. baumannii” value (“Antimicrobial Activity MIC” below) is 0.6 µM, the “MIC GM (geometric mean)” value turned out to be 0.6 µM (≈ 1.83 µg/mL) and the Acinetobacter baumannii MICGM turned out to be 0.6 µM. The “MIC GM (geometric mean)” value in data set [2] amounted to 14.0 µM (≈ 42.7 µg/mL). This molecule also gave a Pseudomonas aeruginosa MICGM with Pseudomonas aeruginosa of 1.6 µM.

Consider `CC[C@@H](C)[C@@H](NC(=O)[C@@H](C)NC(=O)[C@@H](CCCCN)NC(=O)[C@@H](CC(C)C)NC(=O)[C@@H](CC(C)C)NC(=O)[C@H](NC(=O)[C@@H](CCCCN)NC(=O)[C@@H](CC(C)C)NC(=O)[C@@H](CCCCN)NC(=O)[C@@H](CCCCN)NC(=O)[C@@H](CCCCN)NC(=O)[C@@H](CCCCN)NC(=O)[C@@H](C)NC(=O)[C@@H](CCCCN)NC(=O)[C@@H](CO)NC(=O)[C@@H](Cc1ccccc1)NC(=O)[C@H](NC(=O)[C@@H](CCCCN)NC(=O)[C@@H](CC(C)C)NC(=O)[C@@H](Cc1ccccc1)NC(=O)[C@@H](CO)NC(=O)[C@@H](CCCCN)NC(=O)[C@@H](Cc1c[nH]c2ccccc12)NC(=O)[C@@H](CCCCN)NC(C)=O)[C@H](C)O)[C@H](C)O)C(=O)N[C@H](CO)C(=O)N[C@H](CCCCN)C(N)=O` [Peptide D14, Ac-KWKSFLKTFSKAKKKKLKTLLKAISK-amide], for which, in the data set with human erythrocytes, the “Hemolytic activity HC50” value was determined as 351.5 µM. This molecule also had a 50% haemolytic concentration (HC50) at 18 h in data set [1] (human) of 352 µM. Also, in the data set with Acinetobacter baumannii, the “Antimicrobial Activity MIC” value is 0.8 µM, the “MIC GM (geometric mean)” value was determined as 0.8 µM (≈ 2.5 µg/mL) and the Acinetobacter baumannii MICGM was 0.8 µM. The “MIC GM (geometric mean)” value in data set [2] came to 40.1 µM (≈ 125 µg/mL). This molecule also gave a Pseudomonas aeruginosa MICGM with Pseudomonas aeruginosa of 2.5 µM.

On to `CC(=O)N[C@H](CCCCN)C(=O)N[C@H](CC(C)C)C(=O)N[C@H](CCCCN)C(=O)N[C@H](CO)C(=O)N[C@H](CC(C)C)C(=O)N[C@H](CC(C)C)C(=O)N[C@H](CCCCN)C(=O)N[C@@H](C(=O)N[C@H](CC(C)C)C(=O)N[C@H](CO)C(=O)N[C@H](CCCCN)C(=O)N[C@H](C)C(=O)N[C@H](CCCCN)C(=O)N[C@H](CCCCN)C(=O)N[C@H](CCCCN)C(=O)N[C@H](CC(C)C)C(=O)N[C@H](CC(C)C)C(=O)N[C@H](CCCCN)C(=O)N[C@@H](C(=O)N[C@H](C)C(=O)N[C@H](CC(C)C)C(=O)N[C@H](CCCCN)C(=O)N[C@H](C)C(=O)N[C@H](CC(C)C)C(=O)N[C@H](CO)C(=O)N[C@H](CCCCN)C(N)=O)[C@H](C)O)[C@H](C)O` [Peptide D15, Ac-KLKSLLKTLSKAKKKLLKTALKALSK-amide], for which the “Hemolytic activity HC50” value with human erythrocytes was 169.6 µM. For the same molecule, the Hemolytic activity HC50 with human erythrocytes (50% hemolysis after 18 hours at 37° C.) came to 170 µM. The HC50 at 18 h in data set [1] (human erythrocytes, concentration of peptide that results in 50% hemolysis after 18 hours at 37° C., read-out: Hemolytic activity HC50) stood at 170 µM. For the same molecule, in the data set on Acinetobacter baumannii, the “Antimicrobial Activity MIC” value stood at 0.5 µM, the “MIC GM (geometric mean)” value amounted to 0.5 µM (≈ 1.46 µg/mL) and the Acinetobacter baumannii MICGM worked out at 0.5 µM. Further, in data set [2], the “MIC GM (geometric mean)” value came out at 8.1 µM (≈ 23.7 µg/mL). In the data set with Pseudomonas aeruginosa, this molecule registered a Pseudomonas aeruginosa MICGM of 1 µM.

As to `CC(=O)N[C@H](CCCCN)C(=O)N[C@H](CC(C)C)C(=O)N[C@H](CCCCN)C(=O)N[C@H](CO)C(=O)N[C@H](CC(C)C)C(=O)N[C@H](CC(C)C)C(=O)N[C@H](CCCCN)C(=O)N[C@@H](C(=O)N[C@H](CC(C)C)C(=O)N[C@H](CO)C(=O)N[C@H](CCCCN)C(=O)N[C@H](C)C(=O)N[C@H](CCCCN)C(=O)N[C@H](CCCCN)C(=O)N[C@H](CCCCN)C(=O)N[C@H](CCCCN)C(=O)N[C@H](CC(C)C)C(=O)N[C@H](CCCCN)C(=O)N[C@@H](C(=O)N[C@H](CC(C)C)C(=O)N[C@H](CC(C)C)C(=O)N[C@H](CCCCN)C(=O)N[C@H](C)C(=O)N[C@H](CC(C)C)C(=O)N[C@H](CO)C(=O)N[C@H](CCCCN)C(N)=O)[C@H](C)O)[C@H](C)O` [Peptide D16, Ac-KLKSLLKTLSKAKKKKLKTLLKALSK-amide], in the data set with human erythrocytes, the “Fold less hemolytic than D1” value turned out to be 9.5. Also, in data set [1] (human), the HC50 at 18 h stood at 1340 µM. In addition, in the data set with Acinetobacter baumannii, the “Antimicrobial Activity MIC” value worked out at 0.4 µM, the “Fold more active than D1 against A. baumannii” value is recorded as ~3 fold, the “MIC GM (geometric mean)” value amounted to 0.4 µM (≈ 1.19 µg/mL) and the Acinetobacter baumannii MICGM was determined as 0.4 µM. For the same molecule, the “MIC GM (geometric mean)” value in data set [2] was found to be 48.3 µM (≈ 144 µg/mL). The Pseudomonas aeruginosa MICGM in the data set with Pseudomonas aeruginosa came out at 1.5 µM.

Regarding `CC(=O)N[C@H](CCCCN)C(=O)N[C@H](CC(C)C)C(=O)N[C@H](CCCCN)C(=O)N[C@H](CO)C(=O)N[C@H](CC(C)C)C(=O)N[C@H](CC(C)C)C(=O)N[C@H](CCCCN)C(=O)N[C@@H](C(=O)N[C@H](CC(C)C)C(=O)N[C@H](CO)C(=O)N[C@H](CCCCN)C(=O)N[C@H](CC(C)C)C(=O)N[C@H](CCCCN)C(=O)N[C@H](CCCCN)C(=O)N[C@H](CCCCN)C(=O)N[C@H](CCCCN)C(=O)N[C@H](CC(C)C)C(=O)N[C@H](CCCCN)C(=O)N[C@@H](C(=O)N[C@H](CC(C)C)C(=O)N[C@H](CC(C)C)C(=O)N[C@H](CCCCN)C(=O)N[C@H](C)C(=O)N[C@H](CC(C)C)C(=O)N[C@H](CO)C(=O)N[C@H](CCCCN)C(N)=O)[C@H](C)O)[C@H](C)O` [Peptide D23, Ac-KLKSLLKTLSKLKKKKLKTLLKALSK-amide], in the data set with human erythrocytes, the Hemolytic activity HC50 is 186 µM. Also, the Acinetobacter baumannii MICGM with Acinetobacter baumannii was determined as 0.8 µM. Further, in the data set on Pseudomonas aeruginosa, the Pseudomonas aeruginosa MICGM is 2 µM.

`CC(=O)N[C@H](CCCCN)C(=O)N[C@H](CC(C)C)C(=O)N[C@H](CCCCN)C(=O)N[C@H](CO)C(=O)N[C@H](CC(C)C)C(=O)N[C@H](CC(C)C)C(=O)N[C@H](CCCCN)C(=O)N[C@@H](C(=O)N[C@H](CC(C)C)C(=O)N[C@H](CO)C(=O)N[C@H](CCCCN)C(=O)N[C@H](CC(C)C)C(=O)N[C@H](CCCCN)C(=O)N[C@H](CCCCN)C(=O)N[C@H](CCCCN)C(=O)N[C@H](CCCCN)C(=O)N[C@H](CC(C)C)C(=O)N[C@H](CCCCN)C(=O)N[C@@H](C(=O)N[C@H](CC(C)C)C(=O)N[C@H](CC(C)C)C(=O)N[C@H](CCCCN)C(=O)N[C@H](CC(C)C)C(=O)N[C@H](CC(C)C)C(=O)N[C@H](CO)C(=O)N[C@H](CCCCN)C(N)=O)[C@H](C)O)[C@H](C)O` [Peptide D24, Ac-KLKSLLKTLSKLKKKKLKTLLKLLSK-amide] came in with a Hemolytic activity HC50 in the data set on human erythrocytes of 123 µM. In the data set on Acinetobacter baumannii, this molecule registered an Acinetobacter baumannii MICGM of 1.9 µM. Moreover, in the data set on Pseudomonas aeruginosa, the Pseudomonas aeruginosa MICGM stood at 3.9 µM.

Consider “Ac-ELEKGGLEGEKGGKELEK-amide (Ac-ELEKGGLEGEKGGKELEK-NH2) [peptide C]”, for which the “[θ]222 molar ellipticity” value in data set [3] (50% TFE, 5° C.) is listed as −3,950.

As for “PLL: V681 with L-Leu at position 11 (polar face), SEQ ID NO:13 (KWKSFLKTFKLAVKTVLHTALKAISS)”, the “[θ]222 molar ellipticity” value in data set [3] (benign conditions (100 mM KCl, 50 mM aq. PO4, pH 7)) is on record as −10,850.
